# Source: patent US20220251158A1, “INTERMEDIATE FILAMENT-DERIVED PEPTIDES AND THEIR USES” (UNIVERSITAT DE LLEIDA, priority 2019, published 2022)
# System: different populations of leukocytes
# Experiment: Annexin V expression in leukocytes with 9 amino acid core peptides
# Assay type: cell-based
# Conditions: 9 amino acid peptide added directly to cell culture
# Description: For cell death and apoptosis analysis, 400.000 of primary cells or 100.000 of cell line cells were incubated in 96-well plates in 200 μL of complete culture medium for 24 h at 37° C. and 5% CO2 in the absence or presence of 55 μM of different peptides. After 1 hour, 24 hours or 48 hours, apoptosis was measured by CFBlue Annexin V Apoptosis Detection Kit with PI (ANXVKCFB-100T, Immunostep), following kit protocol. For cleaved caspasa-3 intracellular staining, mononuclear cells were permeabilised following the manufacturer's instructions of the FoxP3 Staining Buffer Set (00-5523-00, eBioscience) and the cleaved caspasa-3-Pacific Blue (8788S, Cell Signalling) was used for staining. Cell suspensions were analysed by flow cytometry using FACS CANTO II instrumentation (BD, Biosciences, San Jose, Calif.) and Flowjo (version 8.7) software.
row,Sequence,induction of the expression of annexin V
1,VKMALDIEI (Variant of core sequence - Per9),not to be positive
2,VKMALDVEI (Variant of core sequence - Des9),not to be positive
3,VKLALDIEI (Variant of core sequence - GFAP9),not to be positive
